# Laboratory results reported in BindingDB's records for patent US20240025899 (Shanghai De Novo Pharmatech, 2024).
# Target: T1, Serine/threonine-protein kinase ATR [14-953] (Homo sapiens, UniProt Q13535)
# T1 construct: 14-953
# Assay: ATR Enzyme Assay
# Method: In this experiment, the phosphorylation level of substrate protein P53 (Eurofins, 14-952) was detected by HTRF technology to measure the activity of ATR/ATRIP (Eurofins, 14-953) kinase. Reaction buffer (25 mM HEPES pH 8.0, 0.01% Brij-35, 1% Glycerol, 5 mM DTT, 1 mg/mL BSA), termination buffer (12.5 mM HEPES pH 8.0, 0.005% Brij-35, 0.5% Glycerol, 250 mM EDTA) and assay buffer (50 mM HEPES pH 7.0, 150 mM NaCl, 267 mM KF, 0.1% sodium cholate, 0.01% Tween 20) were prepared in advance. ATR/ATRIP was diluted with reaction buffer to a working solution of 2 ng/μL, and the substrate protein P53 was diluted with reaction buffer to a working solution of 80 nM, and […] (Sigma, A2383) working solution (containing 40 mM MnCl2) was prepared with reaction buffer. The compound was 3-fold diluted with DMSO, then diluted with reaction buffer into a working solution, then added to a 384-well plate at 2.5 μL/well, and centrifuged at 1500 rpm for 40 s. Then 2.5 μL of ATR/ATRIP working solution, P53 working solution and ATP working solution were added into the 384-well plate, centrifuged at 1500 rpm for 40 s and reacted at room temperature for 30 minutes.
# T1 sequence (Q13535 14-953): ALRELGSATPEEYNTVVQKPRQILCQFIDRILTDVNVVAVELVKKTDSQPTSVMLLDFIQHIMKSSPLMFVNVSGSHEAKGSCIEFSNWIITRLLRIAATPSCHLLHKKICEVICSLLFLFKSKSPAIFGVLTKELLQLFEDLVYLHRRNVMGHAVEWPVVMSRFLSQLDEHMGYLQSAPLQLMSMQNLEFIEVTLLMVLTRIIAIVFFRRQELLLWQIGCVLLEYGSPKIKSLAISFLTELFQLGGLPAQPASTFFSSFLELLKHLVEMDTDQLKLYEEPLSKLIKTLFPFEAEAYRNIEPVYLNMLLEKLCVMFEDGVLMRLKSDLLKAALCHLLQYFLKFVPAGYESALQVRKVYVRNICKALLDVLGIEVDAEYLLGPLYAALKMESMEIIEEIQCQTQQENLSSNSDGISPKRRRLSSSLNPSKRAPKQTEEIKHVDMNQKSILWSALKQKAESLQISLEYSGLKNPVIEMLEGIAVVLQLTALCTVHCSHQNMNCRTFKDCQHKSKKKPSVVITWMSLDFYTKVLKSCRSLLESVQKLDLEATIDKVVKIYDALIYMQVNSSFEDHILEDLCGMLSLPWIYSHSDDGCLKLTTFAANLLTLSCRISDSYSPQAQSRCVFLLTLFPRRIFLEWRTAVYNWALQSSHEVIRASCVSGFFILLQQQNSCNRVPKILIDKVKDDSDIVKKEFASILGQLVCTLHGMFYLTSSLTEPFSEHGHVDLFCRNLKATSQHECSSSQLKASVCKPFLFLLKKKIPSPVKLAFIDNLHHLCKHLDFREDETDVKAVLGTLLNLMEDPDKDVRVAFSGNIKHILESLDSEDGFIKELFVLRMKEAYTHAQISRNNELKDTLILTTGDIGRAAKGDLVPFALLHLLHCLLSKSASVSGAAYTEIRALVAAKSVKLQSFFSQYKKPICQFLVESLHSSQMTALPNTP
smiles,measurement,value
"C[C@@H]1COCCN1c1nc2c(cnn2-c2cc[nH]n2)c2c1CCN2S(N)(=O)=O [US20240025899, Compound 5]",IC50,0.0065 µM
"C[C@@H]1COCCN1c1nc2c(cnn2-c2cc[nH]n2)c2c1CCN2C [US20240025899, Compound 12]",IC50,0.014 µM
